Data from ChEMBL document CHEMBL5576127, “New CDDO Arylboronate Ester Derivatives with High Selectivity and Low Toxicity” (J Med Chem, 2024).
Calls of active or inactive are those of the source. The rule behind the calls is not given here.

What was measured:
[1] = tested on: BGC-823; assay: Antiproliferative activity against human BGC-823 cells assessed as inhibition of cell proliferation incubated for 48 hrs by MTT assay; format: functional, cell-based; conditions: BGC-823, 48 h
[2] = tested on: HepG2; assay: Antiproliferative activity against human HepG2 cells assessed as inhibition of cell proliferation incubated for 48 hrs by MTT assay; format: functional, cell-based; conditions: HepG2, 48 h
[3] = Cytotoxicity against human L02 cells assessed as inhibition of cell proliferation incubated for 48 hrs by MTT assay; format: toxicity, cell-based
[4] = tested on: MGC-803; assay: Antiproliferative activity against human MGC-803 cells assessed as inhibition of cell proliferation incubated for 48 hrs by MTT assay; format: functional, cell-based; conditions: MGC-803, 48 h
[5] = tested on: NCI-N87; assay: Antiproliferative activity against human NCI-N87 cells assessed as inhibition of cell proliferation incubated for 48 hrs by MTT assay; format: functional, cell-based; conditions: NCI-N87, 48 h
[6] = tested on: BGC-823; assay: Antiproliferative activity against human BGC-823 cells assessed as inhibition of cell proliferation preincubated with H2O2 for 2 hrs followed by compound addition and measured after 48 hrs by MTT assay; format: functional, cell-based
[7] = tested on: BGC-823; assay: Induction of ROS generation in human BGC-823 cells assessed as cells with green fluorescence at 6 uM incubated for 24 hrs by DCFH-DA staining based analysis relative to control; format: functional
[8] = tested on: Cell membrane; assay: Induction of mitochondrial membrane potential loss in human BGC-823 cells assessed as increase in number of cells with J-monomers by measuring green fluorescence at 6 uM incubated for 24 hrs by JC-1 staining based flow cytometric analysis (reference value: 0.33%); format: cell membranes
[9] = tested on: Cell membrane; assay: Induction of mitochondrial membrane potential loss in human BGC-823 cells assessed as decrease in number of cells with J-aggregates by measuring red fluorescence at 6 uM incubated for 24 hrs by JC-1 staining based flow cytometric analysis (reference value: 99.7 %); format: cell membranes; parameters: scale not given: the % may be the effect or the level left
[10] = tested on: BGC-823; assay: Induction of apoptosis in human BGC-823 cells assessed as viable cells at 1.5 uM incubated for 48 hrs by Annexin V-FITC/PI staining based flow cytometric analysis ( Rvb = 90.09 %); format: functional; conditions: read-out: Activity
[11] = tested on: BGC-823; assay: Induction of apoptosis in human BGC-823 cells assessed as early apoptotic cells at 1.5 uM incubated for 48 hrs by Annexin V-FITC/PI staining based flow cytometric analysis ( Rvb = 1.68 %); format: functional
[12] = tested on: BGC-823; assay: Induction of apoptosis in human BGC-823 cells assessed as viable cells at 3 uM incubated for 48 hrs by Annexin V-FITC/PI staining based flow cytometric analysis ( Rvb = 90.09 %); format: functional; conditions: read-out: Activity
[13] = tested on: BGC-823; assay: Induction of apoptosis in human BGC-823 cells assessed as late apoptotic cells at 3 uM incubated for 48 hrs by Annexin V-FITC/PI staining based flow cytometric analysis ( Rvb = 5.61 %); format: functional
[14] = tested on: BGC-823; assay: Induction of apoptosis in human BGC-823 cells assessed as necrotic cells at 3 uM incubated for 48 hrs by Annexin V-FITC/PI staining based flow cytometric analysis ( Rvb = 1.79 %); format: functional
[15] = tested on: BGC-823; assay: Induction of apoptosis in human BGC-823 cells assessed as early apoptotic cells at 6 uM incubated for 48 hrs by Annexin V-FITC/PI staining based flow cytometric analysis ( Rvb = 1.68 %); format: functional
[16] = tested on: BGC-823; assay: Induction of apoptosis in human BGC-823 cells assessed as late apoptotic cells at 6 uM incubated for 48 hrs by Annexin V-FITC/PI staining based flow cytometric analysis ( Rvb = 5.61 %); format: functional
[17] = tested on: BGC-823; assay: Induction of apoptosis in human BGC-823 cells assessed as necrotic cells at 6 uM incubated for 48 hrs by Annexin V-FITC/PI staining based flow cytometric analysis ( Rvb = 1.79 %); format: functional
[18] = tested on: BGC-823; assay: Cell cycle arrest in human BGC-823 cells assessed as accumulation of cells at G2/M phase incubated for 24 hrs by PI staining based flow cytometric analysis; format: functional
[19] = tested on: BGC-823; assay: Antitumor activity against human BGC-823 cells xenografted in BALB/c nude mouse assessed as tumor growth inhibition at 5 mg/kg, ip administered for 21 days relative to control; format: functional; conditions: BGC-823, 504 h, time 21 day, read-out: TGI
[20] = Toxicity in BALB/c nude mouse xenografted with human BGC-823 cells assessed as change in body weight at 5 mg/kg, ip administered for 21 days; format: organism-based; conditions: in vivo, 504 h, time 21 day
[21] = tested on: BGC-823; assay: Antitumor activity against human BGC-823 cells xenografted in BALB/c nude mouse assessed as nuclear fragmentation in tumor at 5 mg/kg, ip administered for 21 days by H and E staining based analysis; format: functional, organism-based; conditions: time 21.0 day
[22] = tested on: BGC-823; assay: Antitumor activity against human BGC-823 cells xenografted in BALB/c nude mouse assessed as nuclear condensation in tumor at 5 mg/kg, ip administered for 21 days by H and E staining based analysis; format: functional, organism-based; conditions: time 21.0 day
[23] = Acute toxicity in ip dosed ICR mouse assessed as mortality rate by measuring ratio at 1.93 logarithm of dose relative to total number of mouse; format: organism-based; conditions: in vivo
[24] = Acute toxicity in ip dosed ICR mouse assessed as lethal dose; format: organism-based; conditions: in vivo
[25] = Acute toxicity in ip dosed ICR mouse assessed as effect on heart by H and E staining based analysis; format: organism-based; conditions: in vivo
[26] = Acute toxicity in ip dosed ICR mouse assessed as effect on liver by H and E staining based analysis; format: organism-based; conditions: in vivo
[27] = Acute toxicity in ip dosed ICR mouse assessed as effect on spleen by H and E staining based analysis; format: organism-based; conditions: in vivo
[28] = Acute toxicity in ip dosed ICR mouse assessed as effect on lung by H and E staining based analysis; format: organism-based; conditions: in vivo
[29] = Acute toxicity in ip dosed ICR mouse assessed as effect on kidney by H and E staining based analysis; format: organism-based; conditions: in vivo
[30] = tested on: BGC-823; assay: Antiproliferative activity against human BGC-823 cells assessed as reduction in cell viability at 0.52 to 7.68 uM preincubated with H2O2 for 2 hrs followed by compound addition and measured after 48 hrs by MTT assay; format: functional, cell-based; conditions: dose 0.52-7.68 µM
[31] = tested on: BGC-823; assay: Antiproliferative activity against human BGC-823 cells assessed as reduction in cell viability at 0.52 to 7.68 uM preincubated with NAC for 2 hrs followed by compound addition and measured after 48 hrs by MTT assay; format: functional, cell-based; conditions: dose 0.52-7.68 µM
[32] = Drug release in human BGC-823 cells assessed as increase in 4-((4-hydroxybenzoyl)oxy)butyl (4aS,6aR,6bS,8aR,12aS,14aR,14bS)-11-cyano-2,2,6a,6b,9,9,12a-heptamethyl-10,14-dioxo-1,3,4,5,6,6a,6b,7,8,8a,9,10,12a,14,14a,14b-hexadecahydropicene-4a(2H)-carboxylate concentration incubated for 4 hrs in absence of H2O2 by LC-MS analysis; format: ADME, cell-based; conditions: bgc-823, 4 h
[33] = Binding affinity to DTT in PBS assessed as UV peak appearance at 288 nm at 360 uM by UV-Vis spectra analysis
[34] = GSH reactivity in human BGC-823 cells assessed as GSSG/GSH ratio at 2 uM incubated for 24 hrs by microplate reader analysis (reference value: 0.34); format: ADME, cell-based; conditions: bgc-823, 24 h

CC1(C)CC[C@]2(C(=O)OCCCCOC(=O)c3ccc(OCc4ccc(B5OC(C)(C)C(C)(C)O5)cc4)cc3)CC[C@]3(C)[C@H](C(=O)C=C4[C@@]5(C)C=C(C#N)C(=O)C(C)(C)[C@@H]5CC[C@]43C)[C@@H]2C1
IC50 [1]: 2.3 µM | IC50 [2]: 6.5 µM | IC50 at 48 h [3]: 6.5 µM | IC50 [4]: 3.6 µM | IC50 [5]: 2.5 µM | IC50 [6]: 1.2 µM | Activity [7]: 35.7% | Activity [8]: 37.1% | Activity [9]: 62.7% | viability at 1.5 µM [10]: 87.1% | Activity [11]: 2.08% | viability at 3 µM [12]: 82.8% | Activity [13]: 9.84% | Activity [14]: 5.24% | Activity [15]: 3.71% | Activity [16]: 14.9% | Activity [17]: 5.58% | Activity [18]: Dose-Dependent Effect | inhibition in vivo at 5 mg/kg [19]: 86.2% | Activity [20]: Non-Toxic | Activity [21]: Active | Activity [22]: Active | Ratio [23]: 0.17 | LD50 [24]: 91.2 mg/kg | Activity [25]: Non-Toxic | Activity [26]: Non-Toxic | Activity [27]: Non-Toxic | Activity [28]: Non-Toxic | Activity [29]: Non-Toxic | Activity [30]: Active | Activity [31]: inactive | Drug metabolism [32]: Metabolite_Notdetected | Activity [33]: inactive | Ratio [34]: 0.48
